# Columns and labels:
# [1] = tested on: Human neonatal fibroblasts; assay: scratched fibroblast assay (wound closure of monolayer); format: cell-based; conditions: equivalent concentrations of pure FAs (LA 24 μg/mL, OA 18 μg/mL), 24 hours
# Description: Human neonatal fibroblasts were maintained in Dulbecco's Modified Eagle Medium (D-MEM)+10% fetal bovine serum (FBS) and were kept in a humidified 37° C. incubator with 5% CO2. Cells were plated at a density of 1×10^4 cells per well in a 24-well plate and incubated for 24 hours, or until 100% confluency was reached. Each monolayer was wounded by dragging a pipette tip across the bottom of the well, using a straight edge as a guide (approximately 1.3 mm in width). The media was removed and cells were washed with 500 μL PBS twice to remove detached cells or cell debris. The cells were treated as follows: DMEM+10% FBS+vehicle (0.06% glycerol, positive control), DMEM+vehicle (0.06% glycerol, negative control), DMEM+vehicle (0.06% glycerol)+LNO (60 μg/mL), DMEM+vehicle (0.06% glycerol)+LA (24 μg/mL) and DMEM+vehicle (0.06% glycerol)+OA (18 μg/mL). Photos were taken of each well to measure the initial area of the wound. After 24 hours incubation, wells were photographed again. The scratched area was measured using […] Photoshop CS software, and percentage of wound closure at each time point was derived by the following formula: (1−[current wound size/initial wound size])×100.
# [2] = tested on: transgenic zebrafish larvae tail fin (GFP-positive endothelial cells); assay: zebrafish larvae tailfin primordia amputation regeneration / angiogenesis assay; format: in vivo; conditions: 48 hours after amputation
# Source text: A tailfin model of in vivo wound healing and regeneration was also used to assess the ability of a lucuma nut oil extract to promote appropriate wound healing, and the results of these assays also provided information on the angiogenic properties of LNO. In this transgenic model, the fli1 promoter drives expression of green fluorescent protein (GFP) in all the vascular endothelial cells, which allows tracking of wound healing in real time by direct observation of angiogenesis. Forty-eight-hour-old or five-day-old zebrafish larvae (AB strain) were anesthetized in 0.04% 3-amino benzoic acid ethylester (tricaine; MS-222) and placed in 2% agar Petri dishes. Surgical blades were used to amputate tailfin primordia just posterior to the notochord. Larvae were placed in 24-well plates containing either water (control), CGS-21680 (50 μg/mL; CAS120225-54-9) or LNO (10-100 μg/mL in water) and incubated at 28° C. Primordia re-growth was measured using fluorescence microscopy and image analysis of fluorescent endothelial cells. For this assay, the fin fluorescent area was normalized against the total fin area. […] The effects of LNO were analyzed and compared to the positive control CGS-21680 (2-p-(2-Carboxyethyl)phenethylamino-5′-N-ethylcarboxamidoadenosine). […]
# [3] = tested on: dermal wounds of CD-1 mice; assay: CD-1 mouse excision wound healing assay; format: in vivo; conditions: topical once daily, 10 μg/mouse, CT50 ± SE
# Description: The LNO extract of Example 1 was further used in two in vivo models to assess wound healing and regeneration. […] In this experiment, a 12 mm skin punch was used to create a wound in mice and the mice were then divided into three groups, i.e., a negative control group, an experimental group and a positive control group. Immediately following wounding, the wounds were treated for ten days with either vehicle (0.5% carboxymethylcellulose in PBS), lucuma nut oil (LNO) (200 μg/mouse) in vehicle, or the positive control CGS-21680 (CAS120225-54-9, a specific adenosine A2A receptor agonist offered commercially by Tocris; see U.S. Pat. No. 4,968,697), also in vehicle. […] Wound healing assays were performed by MDS Pharma Services, Taiwan, MDSPS Testing Code 1115924, according to the protocol describe elsewhere (Kapoor, et al., J. Clin. Invest., 118:3279-3290 (2008); Montesinos, et al., J. Exp. Med., 186:1615-1620 (1997), each description incorporated herein by reference). Briefly, groups of 5 male CD-1 mice weighing 22±2 g were used for this assay. […] The wounded area was traced onto clear plastic sheets on days 3, 5, 7, 9 and 11 and quantitated by using an Image Analyzer (Life Science Resources VISTA, Version 30). […]
Compound,cell migration in scratched fibroblasts compared with LNO 60 μg/mL [1],GFP-positive endothelial cells in regenerating tail fin (angiogenesis) [2],Dermal wound closure expressed as half-closure time (CT50) [3]
"CCCCCCCC/C=C\CCCCCCCC(=O)O [OA, oleic acid]",not able to reproduce the effect of LNO in cell migration,not found,–
"CCNC(=O)[C@H]1O[C@@H](n2cnc3c(N)nc(NCCc4ccc(CCC(=O)O)cc4)nc32)[C@H](O)[C@@H]1O [CGS, 2-p-(2-Carboxyethyl)phenethylamino-5′-N-ethylcarboxamidoadenosine]",–,–,6.04 ± 0.2 days
"CCCCC/C=C\C/C=C\CCCCCCCC(=O)O [LA, linoleic acid]",not able to reproduce the effect of LNO in cell migration,not found,–

# From patent US20110318403A1, “Preparation and Use of Pouteria Lucuma Extract” (priority 2008, published 2011)
